{
  "source": "ChEMBL document CHEMBL3832074",
  "about": "“DailyMed|setid=ad6a2b73-29d4-4ced-ba42-4c2ad1c5a1af | ENTACAPONE - entacapone tablet, film coated|Sun Pharma Global FZE”",
  "type_in_all_cases": "ADME, organism-based",
  "key": {"Homo sapiens [1]": {"tested_on": "Homo sapiens", "experiment": "Pharmcokinetic parameters for Enctacpone following oral administration of Entacapone.", "conditions": "in vivo, dosed compound id 40, dosed compound name ENTACAPONE; for Excretion: po"}, "[2]": {"experiment": "(§1) Pharmacokinetic parameters for Enctacpone after single oral administartion of 200 and 800 mg Entacapone tablets to volunteers.", "design": "dose 200 mg, route oral", "conditions": "human, in vivo, 200 mg, dosed compound id 40, dosed compound name ENTACAPONE, regimen Single dose, tissue Plasma"}, "Homo sapiens [3]": {"tested_on": "Homo sapiens", "experiment": "as §1", "design": "dose 200 mg, route oral", "conditions": "in vivo, dosed compound id 40, dosed compound name ENTACAPONE, gender male and female, regimen Single dose, route oral, tissue Plasma"}},
  "data": [
    {"smiles": "CCN(CC)C(=O)/C(C#N)=C/c1cc(O)c(O)c([N+](=O)[O-])c1", "note": "[ENTACAPONE]", "values": [
      {"measurement": "CL", "setting": "Homo sapiens [1]; route iv, tissue Plasma", "result": 850, "unit": "mL/min"},
      {"measurement": "Excretion", "setting": "Homo sapiens [1]; tissue Feces", "result": 90, "unit": "%"},
      {"measurement": "Excretion", "setting": "Homo sapiens [1]; tissue Urine", "result": 10, "unit": "%"},
      {"measurement": "Cmax", "setting": "[2]", "result": 1200, "unit": "ng/mL"},
      {"measurement": "Inhibition", "setting": "Homo sapiens [3]; at 200 mg", "result": 65, "unit": "%"},
      {"measurement": "Inhibition", "setting": "Homo sapiens [3]; at 800 mg", "result": 82, "unit": "%"}
    ]}
  ]
}
